# Patent publication US11007269B2, “P53 degradation inducing molecule and pharmaceutical composition” (Tokyo University of Science Foundation, priority 2016, dated 2021)
# How the values were obtained:
# MDM2 protein = biological target: T1, MDM2 protein (Homo sapiens, UniProt Q00987); assay: Western blot of endogenous MDM2 protein degradation (knockdown) in HCT116 cells; type: cell-based; details: 48 hours after addition, vs DMSO control
# T1 construct: endogenous in cells; host or cells: HCT116
# T1 sequence (Q00987 whole entry): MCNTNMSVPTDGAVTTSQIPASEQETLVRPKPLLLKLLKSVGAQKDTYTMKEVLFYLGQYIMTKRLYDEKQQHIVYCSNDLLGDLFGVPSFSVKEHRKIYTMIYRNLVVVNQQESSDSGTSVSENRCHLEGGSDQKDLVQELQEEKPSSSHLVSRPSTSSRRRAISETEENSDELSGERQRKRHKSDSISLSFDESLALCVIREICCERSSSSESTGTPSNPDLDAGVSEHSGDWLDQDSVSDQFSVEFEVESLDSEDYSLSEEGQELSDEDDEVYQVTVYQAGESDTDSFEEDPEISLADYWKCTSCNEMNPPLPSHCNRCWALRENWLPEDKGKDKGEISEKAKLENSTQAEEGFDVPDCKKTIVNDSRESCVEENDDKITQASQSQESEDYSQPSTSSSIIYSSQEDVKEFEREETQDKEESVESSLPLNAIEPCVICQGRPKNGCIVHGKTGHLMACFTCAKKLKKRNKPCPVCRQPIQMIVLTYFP
# Protocol: (§1) In Example 2, degradation (knockdown) of an endogenous wild-type p53 protein and MDM2 protein in HCT116 cells (human large intestinal cancer cells) to which TIBC-CANDDY_MLN had been added was evaluated by Western blot analysis.
# (§2) HCT116 cells were seeded in a 24-well plate at a cell density of 8×10^4 cells/well, and then cultured under conditions of 37° C. and 5 vol % CO2 for 16 hours.
# (§3) After 16 hours from cell seeding, TIBC-CANDDY_MLN or TIBC was added to HCT116 cells as follows. As a medium, a serum-free medium (37° C.) in which 1 mass % L-glutamine solution (Sigma-Aldrich) was added to D-MEM (high D-glucose, phenol red, sodium pyruvate (Wako Pure Chemical Industries, Ltd.)) was used. It is noted that the L-glutamine solution was added immediately before use. […]
# (§4) After electrophoresis, proteins were transferred to a PVDF membrane (Immobion™-P, Millipore) under conditions of 100 V and 2 hours using a tank-type blotting device and a transfer buffer (25 mM Tris-HCl, 195 mM glycine, 0.01% SDS, 15% methanol). […] Subsequently, the membrane was treated with a chemiluminescence reagent Immobilon™ Western (Millipore), and then chemiluminescence was detected using a lumino image analyzer LAS-3000 (FUJIFILM Corporation).
# [1] = biological target: endogenous wild-type p53 protein (Homo sapiens, UniProt P04637); assay: Western blot of endogenous wild-type p53 protein degradation (knockdown) in HCT116 cells; type: cell-based; parameters: degradation (knockdown) of an endogenous wild-type p53 protein and MDM2 protein in HCT116 cells; endogenous in cells; host or cells: HCT116; details: 48 hours after addition, vs DMSO control
# Sequence of endogenous wild-type p53 protein (P04637 whole entry): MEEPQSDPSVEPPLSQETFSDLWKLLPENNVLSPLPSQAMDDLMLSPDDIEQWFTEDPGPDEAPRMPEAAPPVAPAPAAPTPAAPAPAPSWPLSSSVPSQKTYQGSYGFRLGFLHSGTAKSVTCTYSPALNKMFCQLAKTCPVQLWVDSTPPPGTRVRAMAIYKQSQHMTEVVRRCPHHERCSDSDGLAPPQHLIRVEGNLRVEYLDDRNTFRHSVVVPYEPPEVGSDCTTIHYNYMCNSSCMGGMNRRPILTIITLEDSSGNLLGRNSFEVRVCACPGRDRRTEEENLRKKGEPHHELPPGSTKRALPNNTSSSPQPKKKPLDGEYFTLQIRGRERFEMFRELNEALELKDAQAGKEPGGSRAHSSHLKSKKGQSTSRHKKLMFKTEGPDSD
# Protocol: as §1, §2, §3, §4
smiles,measurement,setting,value
CC(C)C[C@H](NC(=O)CNC(=O)c1cc(Cl)ccc1Cl)C(=O)NCCCCCCC(=O)Nc1ccc(C(=O)/C=C/c2ccc(I)cc2)cc1 [TIBC-CANDDY_MLN],amount of the endogenous MDM2 protein (Western blot),MDM2 protein,reduced
same,amount of the endogenous wild-type p53 protein (Western blot),[1],reduced
